Experiments:
Type in all cases: binding
[1] = target: T1, E. coli dUTPase (EcDUT) (Escherichia coli, UniProt P06968, F146W, form not given); assay: tryptophan fluorescence; acrylamide quenching; settings: 3 µM enzyme, 100 µM dUPNPP, 5 mM MgCl2, pH 7.5, 293 K; active site; quenching with 4 µM enzyme, 1.5 mM dUPNPP
T1 construct: gene dut; expressed in E. coli BL21(DE3) Rosetta; homotrimer; C-terminal residues R150, Q151

[2] = target: T2, E. coli dUTPase (EcDUT) (Escherichia coli, UniProt P06968, Q94H, form not given); assay: X-ray crystallography, […] Å; settings: 5 mM dUPNPP, Mg2+, pH 7.5; active site; non-hydrolysable substrate analogue
T2 construct: gene dut; expressed in E. coli BL21(DE3) Rosetta; homotrimer; C-terminal residues R150, Q151

[3] = target: T3, E. coli dUTPase (EcDUT) (Escherichia coli, UniProt P06968, Q94R/F146W, form not given); assay: tryptophan fluorescence; settings: 3 µM enzyme, 100 µM dUPNPP, 5 mM MgCl2, pH 7.5, 293 K; active site
T3 construct: gene dut; expressed in E. coli BL21(DE3) Rosetta; homotrimer; C-terminal residues R150, Q151

[4] = target: T4, E. coli dUTPase (EcDUT) (Escherichia coli, UniProt P06968, Q94H/F146W, form not given); assay: tryptophan fluorescence; acrylamide quenching; settings: 3 µM enzyme, 100 µM dUPNPP, 5 mM MgCl2, pH 7.5, 293 K; active site; quenching with 4 µM enzyme, 1.5 mM dUPNPP
T4 construct: gene dut; expressed in E. coli BL21(DE3) Rosetta; homotrimer; C-terminal residues R150, Q151

O=c1ccn([C@H]2C[C@H](O)[C@@H](COP(=O)(O)NP(=O)(O)OP(=O)(O)O)O2)c(=O)[nH]1 [dUPNPP]
tryptophan fluorescence; acrylamide quenching [1]: allowed us to follow substrate analogue and Stl binding of the three arm-tryptophan mutant enzyme | X-ray crystallography, 1.8 Å [2]: we crystallized the EcDUT^Q93H dUTPase mutant in the presence of the non-hydrolysable substrate analogue dUPNPP | tryptophan fluorescence [3]: allowed us to follow substrate analogue and Stl binding of the three arm-tryptophan mutant enzyme | tryptophan fluorescence; acrylamide quenching [4]: allowed us to follow substrate analogue and Stl binding of the three arm-tryptophan mutant enzyme

Source: article PMC6627510, “The Role of a Key Amino Acid Position in Species-Specific Proteinaceous dUTPase Inhibition” (Biomolecules, 2019)
